# According to patent US20040120954A1, “Regulation of mt1-mmp activity” (priority 2000, published 2004):
# Experiments:
# [1] = tested on: MT1-MMP; experiment: Activation of proMMP-2 by MT1-MMP on the cell surface of transfected cells (gelatin zymography); type: cell-based, human; conditions: transfected COS1 cells, exogenous purified proMMP-2 (FIGS. 2, 20)
# Protocol: (§1) Gelatin zymography was conducted using an SDS-polyacrylamide gel (PAGE) containing gelatin (0.8 mg/ml) (Itoh, Y. et al., J. Biol. Chem., 273: 24360-24367, 1998). The samples were mixed with a SDS-PAGE loading buffer without a reducing agent and subjected to electrophoretic analysis at room temperature. Enzyme activity was visualized as a negative staining area with Coomassie Brilliant Blue R-250.
# (§2) The expression construct for FLAG epitope ([…]-tagged MT1-MMP (MT1-F) described in Itoh, Y. et al., J. Biol. Chem., 274: 34260-34266, 1999 was used as a template to generate cDNA for MT1Cat-F (A Ile^318-Gly^535) by the PCR extension method of Ho et al., (Ho, S. N. et al., Gene, 77: 51-59, 1989). The cDNA was subcloned into pSG5 (Stratagene, CA, USA). The PCR-generated fragments were confirmed by DNA sequencing. COS1 cells were transfected with the expression vector for MT1-MMP mutant; MT1-F or MT1Cat-F, or a vector alone (Mock). Expression vectors for each protein were transfected using FuGENE6™ (Roche Molecular Biochemicals) according to the manufacturer's instructions. COS1 cells were seeded in 6-well plates at 1.5×10^5/well at 16 hrs before the transfection was performed. The COS1 cells were maintained in a HAM F-12 medium or DMEM containing 10% fetal bovine serum in a humidified incubator at 37° C. At 48 hrs after the transfection, the cells were collected for use in the experiments. The cells were incubated in the presence of purified proMMP-2 in a serum-free medium (0.25 μg/ml) at 37° C. for 18 hrs. Cell lysates were tested for the expression of the mutants, while culture supernatants were tested for the activation of proMMP-2.
# (§3) To investigate roles of dimer formation upon the activation of proMMP-2, MT1-F was introduced into COS1 cells together with MT1PEX-F. The co-introduced cells were reacted with exogenously added proMMP-2. Thus, COS1 cells were co-transfected with the MT1-F and MT1PEX-F at indicated DNA amount ratios. Next, purified proMMP-2 (0.25 μg/ml) in a serum-free medium was reacted with the resulting cells at 37° C. for 18 hrs. MMP-2 in the culture supernatant was analyzed by gelatin zymography, and the cell lysates were subjected to Western blotting analysis using a monoclonal anti-FLAG M2 antibody.
# (§4) Next, to determine if MT1PEX-F affects the catalytic activity of MT1-MMP on the cell surface or not, tests for gelatin degrading activity and binding capacity to TIMP-2 were conducted using cells transfected in the same incubator. As shown in FIGS. 12 through 14, CHO-K1 cells were transfected with an expression vector for MT1-F, MT1-F/MT1PEX-F or MT1Cat-F, or a vector alone (Mock). The cells were then treated with trypsin, and separately seeded to: DQ™ gelatin-coated cover slips for testing the proteolytic activity (FIG. 13); and 24-well plates for TIMP-2 binding assay (FIG. 12) and for the activation of proMMP-2 (FIG. 14). Transfected cells on the DQ™ gelatin-coated cover slip as shown in FIG. 13 were incubated in a medium at 37° C. for 18 hrs, and the generated fluorescence was analyzed using confocal microscopy. Transfected cells on the 24-well plate as shown in FIG. 12 were incubated with 25 nM ^125I-labeled TIMP-2 in the presence or absence of BB-94 (50 μM) at 0° C. for 1 hr. MT1-MMP specific binding was calculated by subtracting the datum obtained in the presence of BB-94 (50 μM) from each datum derived from the corresponding experiments. […] DQ™ gelatin is a fluorescence-quenched gelatin, which fluoresces upon proteolytic cleavage. […]
# [2] = molecular target: T1, MT1-MMP (Homo sapiens, UniProt P50281); experiment: as above; type: cell-based
# T1 construct: expressed in transfected cells
# Protocol: as §1, §2, §3, §4
# [3] = molecular target: T1, MT1-MMP; experiment: In situ gelatin degrading assay (DQ gelatin or Alexa488-conjugated gelatin); type: cell-based; conditions: COS1 cells co-transfected with MT1-MMP, Alexa488-labeled gelatin (FIG. 30)
# [4] = tested on: HT1080 cells; experiment: Activation of endogenous proMMP-2 in HT1080 cells (zymography, Western blotting); type: cell-based, human
# Protocol: FIG. 31: In regard to the efficacy of MT1PEX-F on the matrigel invasive action of HT1080 cells, HT1080 cells were transfected with the stable expression plasmids for MT1PEX-F and the empty vector (Mock). Hygromycin resistant cells were collected and re-seeded. The culture medium was changed to a serum-free medium in the presence or absence of BB94, and the cells were further cultured. The culture media and the cell lysates were analyzed by gelatin zymography and Western blotting using an anti-MT1PEX antibody, respectively.
# HT1080 cells are known to express MT1-MMP and MMP-2 endogenously. Thus, the efficacy of MT1PEX-F expression on the activation of endogenous proMMF-2 in HT1080 cells was next examined. The cells were transfected with a plasmid for MT1PEX-F or an empty vector bearing the hygromycin-resistant gene. The culture medium from the hygromycin-resistant cells was analyzed for produced MMP-2 by zymography. […] Co-expression of endogenous MT1-MMP and MT1PEX-F clearly indicated the co-localization of both molecules at the edge of the cells (FIG. 32).
Substance,activation of proMMP-2 by cells expressing the mutant [1],effect on the activation of proMMP-2 ([2]; CHO-K1 cells co-transfected with MT1-F and MT1PEX-F (FIG. 14)),"effect on the activation of proMMP-2 by MT1-F ([2]; COS1 cells co-transfected at indicated DNA ratios, proMMP-2 0.25 μg/ml, 37° C., 18 hrs (FIGS. 11 and 28))",effect on the proteolytic activity of MT1-MMP on the cell surface [3],"effect on expression and processing of endogenous MT1-MMP ([4]; HT1080 cell lysates, Western blotting (FIG. 31))","activation of endogenous proMMP-2 ([4]; hygromycin-resistant HT1080 cells, serum-free medium (FIG. 31))"
MT1Cat-F: PEX-deleted FLAG-tagged MT1-MMP (Δ Ile318-Gly535),did not activate at all,–,–,–,–,–
"MT1PEX-F: Catalytic domain-deleted FLAG-tagged MT1-MMP (Δ Tyr112-Pro312), expressed by transfection",–,completely inhibited the activation of proMMP-2,"inhibited the activation of proMMP-2 by MT1-F, in dependence upon the expression level",did not affect the proteolytic activity,did not affect the expression and processing of endogenous MT1-MMP,did not effectively activate proMMP-2
